From PMC6271891, “Exploration of Piperidinols as Potential Antitubercular Agents” (Molecules, 2014)
Converted amounts (≈) assume the structure as drawn. “And” between values parts separate entries of the source, which are not always exact repeats. Equal values may be shown once. Read-outs that look alike come from different tables or passages of the source.

Key:
[1] = system: RAW 264.7 cells; settings: up to 50 μg/mL inhibitor concentration
[2] = molecular target: T1, MMNAT (Mycobacterium marinum, UniProt B2HIZ6); experiment: NAT inhibition assay (CoA formation), MMNAT; type: biochemical; settings: for inhibition at 50 µM: read-out: MMNAT % Inhibition
Protocol: (§1) The NAT enzymes from M. smegmatis, S. typhimurium, P. aeruginosa, M. marinum, M. tuberculosis, hamster NAT2 [45] and human NAT1 [46] were produced as recombinant proteins, purified as previously described and stored at −80 in 20 mM Tris-HCl pH 8 containing 1 mM dithiothreitol and 5% glycerol and thawed and used within 1–5 h.
(§2) An assay for measuring the formation of CoA [23] was modified and used to determine the activity of the enzyme in the presence of potential inhibitors exactly as described previously. Irreversible inhibition, progressive with time was measured for the piperidinol inhibitors by the protocol described in [13] and the values of the apparent first order rate constant (kobs) were determined using the Kitz and Wilson model. Adduct formation was determined as previously described by mass spectroscopy analysis.

[3] = system: M. tuberculosis strain H37Rv; experiment: Mycobacterial growth inhibition, spot culture on solid medium, M. tuberculosis H37Rv; type: cell-based; settings: Mycobacterium tuberculosis, 336 h, read-out: MIC M. tuberculosis
[4] = molecular target: T1, MMNAT; experiment: Time-dependent (irreversible) inactivation of MMNAT by the piperidinols; type: biochemical; settings: for kobs: 24 °C, mean ± S.D. of triplicate; for t1/2, apparent inactivation half-life: t1/2 = 0.693/kobs
Protocol: as §2
Figure S1. The time-dependent inhibition of the MMNAT by the piperidinols (A) compounds 1, 3, 4, 6 at 11.9 μM concentration (B) 5, 7 at 5.9 μM concentration and (C) 8, […]
Semi-logarithmic plots showing the time-dependent inactivation of MMNAT by (A) compounds 1, 3, 4, 6 at 11.9 μM concentration (B) 5, 7 at 5.9 μM concentration and (C) 8, 9 (11.9 μM), 10 (23.8 μM) and 11 (5.9 μM). The enzyme activity was measured using the protocol described in [1]. The results are presented as the mean ± S.D. of triplicate measurements. The error bars are within the symbols.
The residual activity is shown as a percentage of a control. The data were fitted against the incubation time using the Semilog line (X is linear, Y is Log) module of GraphPad Prism 5.0. The slope of each line is equivalent to (−kobs/2.303) at each inhibitor concentration. […]

[5] = system: M. bovis BCG; experiment: microbe, parasite or virus in culture; type: cell-based; settings: Mycobacterium tuberculosis variant bovis BCG, 336 h, read-out: MIC M. bovis BCG
[6] = system: mycobacteria; parameters: method as in PMID 23285185; settings: cited from earlier work
[7] = molecular target: T2, TBNAT (Mycobacterium tuberculosis, UniProt P9WJI5); experiment: NAT inhibition assay (CoA formation), TBNAT; type: biochemical, M. tuberculosis; settings: for inhibition at 50 µM: read-out: TBNAT % Inhibition; for IC50: inhibitor 0–250 μM
T2 construct: made in house
Protocol: as §1, §2

[8] = system: M. bovis BCG str. Pasteur (ATCC 35734); experiment: microbe, parasite or virus in culture; type: cell-based; settings: Mycobacterium tuberculosis variant bovis BCG, read-out: MIC against M. bovis BCG
[9] = 5ASA as substrate, mean ± S.D. of triplicate, read-out: MMNAT IC50 5ASA
[10] = strain H37Rv, solid medium 7H10-OADC, no growth after 2 weeks
[11] = 50 μM inhibitor, 150 μM HLZ and 120 μM Ac-CoA, mean ± S.D. of triplicate
[12] = 150 μM HLZ and 120 μM Ac-CoA, mean ± S.D. of triplicate
[13] = 150 μM HLZ and 120 μM Ac-CoA, inhibitor 0–250 μM, mean ± S.D. of triplicate, read-out: MMNAT IC50 HLZ

T2 sequence (P9WJI5 whole entry): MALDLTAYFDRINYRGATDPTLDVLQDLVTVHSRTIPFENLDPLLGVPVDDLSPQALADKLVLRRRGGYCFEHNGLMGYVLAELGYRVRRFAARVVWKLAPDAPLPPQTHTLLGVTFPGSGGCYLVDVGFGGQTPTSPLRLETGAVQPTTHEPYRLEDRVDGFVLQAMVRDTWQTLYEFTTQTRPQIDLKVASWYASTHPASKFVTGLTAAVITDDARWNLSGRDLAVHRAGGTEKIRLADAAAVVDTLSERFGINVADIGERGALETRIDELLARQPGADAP
T1 sequence (B2HIZ6 entry or part of it): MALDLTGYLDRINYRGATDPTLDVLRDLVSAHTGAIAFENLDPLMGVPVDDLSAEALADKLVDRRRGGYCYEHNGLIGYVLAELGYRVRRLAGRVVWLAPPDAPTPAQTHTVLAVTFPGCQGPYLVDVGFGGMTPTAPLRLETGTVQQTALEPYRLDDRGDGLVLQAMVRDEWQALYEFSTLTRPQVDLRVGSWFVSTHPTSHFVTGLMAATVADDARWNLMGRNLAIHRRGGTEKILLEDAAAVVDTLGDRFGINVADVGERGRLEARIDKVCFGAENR

Row | SMILES | Cytotoxic effect on RAW 264.7 cells [1] | IC50 [2, 9] | MIC [3, 10] | kobs ([4]; inhibitor 11.9 μM) | t1/2, apparent inactivation half-life ([4]; inhibitor 11.9 μM) | MIC [5] | MIC (antimycobacterial) [6] | inhibition at 50 µM [7, 11] | IC50 [7, 12] | inhibition at 50 µM [2, 11] | IC50 [2, 13] | kobs ([4]; inhibitor 5.9 μM) | t1/2, apparent inactivation half-life ([4]; inhibitor 5.9 μM) | MIC ([3]; H37RV) | kobs ([4]; inhibitor 23.8 μM) | t1/2, apparent inactivation half-life ([4]; inhibitor 23.8 μM) | inhibition at 50 µM [7] | inhibition at 50 µM [2] | MIC [8]
1 | CN1CCC(O)(c2ccccc2)C(C(=O)c2ccccc2)C1 (stereo not shown) [Compound 1] | no cytotoxicity was observed | 6000 ± 1000 nM | 1 to 10 µg/mL (≈ 3.39 to 33.9 µM) | 9 ± 2 10^−3 min^−1 | 81.5 min | 6.3 to 12.5 µg/mL (≈ 21.3 to 42.3 µM) | < 5 µg/mL | – | – | – | – | – | – | – | – | – | – | – | –
2 | CN1CCC(O)(c2ccc(Cl)cc2)C(C(=O)c2ccc(Cl)cc2)C1 (stereo not shown) [Compound 2] | – | 1400 ± 600 nM | – | 110 ± 2 10^−3 min^−1 | 6.3 min | 6.3 to 12.5 µg/mL (≈ 17.3 to 34.3 µM) | – | 98 ± 1% | 1600 ± 100 nM | 103 ± 2% | 160 ± 10 nM | – | – | – | – | – | – | – | –
3 | CN1CCC(O)(c2ccc(Br)cc2)C(C(=O)c2ccc(Br)cc2)C1 (stereo not shown) [Compound 3] | – | 1300 ± 400 nM | 5 to 10 µg/mL (≈ 11 to 22.1 µM) | 74 ± 7 10^−3 min^−1 | 9.4 min | 6.3 to 12.5 µg/mL (≈ 13.9 to 27.6 µM) | – | 98 ± 3% | 2900 ± 400 nM | 99 ± 1% | 80 ± 10 nM | – | – | – | – | – | – | – | –
4 | CCN1CCC(O)(c2ccccc2)C(C(=O)c2ccccc2)C1 (stereo not shown) [Compound 4] | – | 8000 ± 1000 nM | 5 to 10 µg/mL (≈ 16.2 to 32.3 µM) | 15 ± 1 10^−3 min^−1 | 45.6 min | 6.3 to 12.5 µg/mL (≈ 20.4 to 40.4 µM) | – | 72 ± 4% | 7300 ± 300 nM | 126 ± 5% | 1900 nM | – | – | – | – | – | – | – | –
5 | CCN1CCC(O)(c2ccc(F)cc2)C(C(=O)c2ccc(F)cc2)C1 (stereo not shown) [Compound 5] | – | 1300 ± 500 nM | 5 to 10 µg/mL (≈ 14.5 to 29 µM) | – | – | 6.3 to 12.5 µg/mL (≈ 18.2 to 36.2 µM) | – | 108 ± 1% | 4400 nM | 102 ± 3% | 500 nM | 638 ± 120 10^−3 min^−1 | 1.1 min | – | – | – | – | – | –
6 | CCCCN1CCC(O)(c2ccccc2)C(C(=O)c2ccccc2)C1 (stereo not shown) [Compound 6] | – | 5000 ± 400 nM | 1 to 5 µg/mL (≈ 2.96 to 14.8 µM) | 104 ± 8 10^−3 min^−1 | 6.6 min | 6.3 to 12.5 µg/mL (≈ 18.7 to 37 µM) | – | 100 ± 3% | 6900 ± 400 nM | 102 ± 3% | 2600 ± 1000 nM | – | – | – | – | – | – | – | –
7 | O=C(c1ccccc1)C1CN(C2CCCCC2)CCC1(O)c1ccccc1 (stereo not shown) [Compound 7] | – | 1700 ± 200 nM | – | – | – | 6.3 to 12.5 µg/mL (≈ 17.3 to 34.4 µM) | – | – | – | – | – | 573 ± 25 10^−3 min^−1 | 1.2 min | 1 to 5 µg/mL (≈ 2.75 to 13.8 µM) | – | – | – | – | –
8 | O=C(c1ccccc1)C1CN(Cc2ccccc2)CCC1(O)c1ccccc1 (stereo not shown) [Compound 8] | – | – | 0 to 1 µg/mL | 10 ± 1 10^−3 min^−1 | 71.4 min | 6.3 to 12.5 µg/mL (≈ 17 to 33.6 µM) | – | 58 ± 2% | – | 101 ± 1% | 4100 ± 400 nM | – | – | – | – | – | – | – | –
9 | O=C(c1ccccc1)C1CN(C2CCCO2)CCC1(O)c1ccccc1 (stereo not shown) [Compound 9] | – | 9000 ± 900 nM | 0 to 1 µg/mL | 163 ± 39 10^−3 min^−1 | 4.2 min | – | – | 51 ± 3% | – | 100.8 ± 0.5% | 2500 ± 300 nM | – | – | – | – | – | – | – | –
10 | O=C(c1ccccc1)C1CN(C2CCS(=O)(=O)C2)CCC1(O)c1ccccc1 (stereo not shown) [Compound 10] | – | > 30000 nM | – | – | – | 3.1 to 6.3 µg/mL (≈ 7.76 to 15.8 µM) | – | 47 ± 2% | – | 99 ± 0.7% | 13000 ± 1000 nM | – | – | – | 19 ± 1 10^−3 min^−1 | 37.1 min | – | – | –
11 | CC1(C)CC(N2CCC(O)(c3ccccc3)C(C(=O)c3ccccc3)C2)CC(C)(C)N1 (stereo not shown) [Compound 11] | no cytotoxicity was observed | 1100 ± 300 nM | 1 to 5 µg/mL (≈ 2.38 to 11.9 µM) | – | – | 6.3 to 12.5 µg/mL (≈ 15 to 29.7 µM) | – | – | – | – | – | 34 ± 1 10^−3 min^−1 | 20.2 min | – | – | – | – | – | –
12 | OC(CCN1CCCCC1)c1ccc2c(c1)OCO2 (stereo not shown) [Compound 15] | – | – | – | – | – | – | – | – | 20000 ± 3000 nM | – | 1000 ± 100 nM | – | – | – | – | – | 86 ± 2% | 103 ± 3% | 125 µM to 250 µM and 33 µg/mL to 66 µg/mL
13 | C=CCC(O)(CCN1CCOCC1)c1ccc(F)cc1 (stereo not shown) [Compound 16] | – | – | – | – | – | – | – | – | – | – | 6400 ± 600 nM | – | – | – | – | – | -14 ± 3% | 99 ± 1% | –
